In patent publication US20240034731A1, “AZA-QUINAZOLINE COMPOUNDS AND METHODS OF USE” (Iambic Therapeutics, Inc., priority 2022, published 2024) one finds IC50 data, which are given here for nine molecules.

In experiment [1] the target is CDK4/Cyclin D1 (Homo sapiens (Human), UniProt P11802). Nature of the experiment: CDK4/Cyclin D1 CHEF Assay (AQT0258 peptide). Type of experiment: biochemical. Conditions: 200 uM ATP, read-out: CDK4/ CyclinD1 AQT IC50. An excerpt: CDK4/Cyclin D1 CHEF Assay
The purpose of CDK4/Cyclin D1 assay is to evaluate the inhibition (% inhibition and IC50 values) of small molecule inhibitors by using a Chelation-Enhance Fluorescence (CHEF) assay. In a CHEF assay, phosphorylation of a peptide substrate results in proportional increase in fluorescence. CHEF kinase assay use peptide substrates containing a synthetic alpha-amino acid with a side chain bearing an 8-hydroxyquinoline derivative (sulfonamido-oxide, Sox). Upon phosphorylation of a nearby serine, threonine or tyrosine and in the presence of Mg(II), the spectral properties of the Sox residue are altered, emitting 485 nm wavelength light when excited with a 360 nm wavelength light source. CDK4/Cyclin D1 catalyzes the phosphoryl transfer to the SOX-labeled substrate peptide AQT0258 from Assayquant Technologies. […] The reaction was initiated with the addition of substrate solution, following a 30-minute pre-incubation of enzyme and inhibitor at 22° C. in the reaction mix. Reactions were allowed to proceed for 3 hrs at 22° C., followed by fluorescence read of the reaction. The IC50 determinations were made from a plot of the fractional velocity as a function of inhibitor concentration fit to the 4 parameters IC50 equation.

In experiment [2] the test system is OVCAR-3 cells. Put plainly: Cell Growth Inhibition, OVCAR-3 (CellTiterGlo, 6 days). Type of experiment: cell-based. The conditions noted are these: Homo sapiens, 144 h, OVCAR-3, 6-day treatment. The text has this: (§1) MCF-7 and OVCAR-3 cells were used to evaluate the anti-proliferation activity of the CDK inhibitors. MCF-7 (ATCC, HTB-22) cells are epithelial cells from a patient with ER+ metastatic adenocarcinoma. OVCAR-3 (ATCC, HTB-161) cells were derived from malignant ascites of a patient with ovarian cancer and are known to have CCNE1 amplification. Both cell lines were maintained in RPMI media supplemented with 10% fetal bovine serum. For cell growth inhibition assay, CDK inhibitors in DMSO solution were dispensed with either Echo 655 (Beckman Coulter) or Tecan D300e (HP) into 384-well plates (Corning #3765) and the 384-well plates were UV-sterilized prior to the assay. The inhibitors were typically tested in the 10-10,000 nM concentration range with half-log serial dilutions. MCF-7 or OVCAR-3 (500 cells/30 μL/well) were added to each well using Multidrop Combi (ThermoFisher) using standard cassettes. The assay plates with cells were cultured at 37° C., 5% CO2 for 6 days. At the end of the 6-day treatment, 30 μL of CellTiterGlo 2.0 (Promega) was added to each well and the luminescent signal was read using CLARIOstar plus (BMG). The percentage of cell growth inhibition (% CGI) was calculated using the following formula 00 CGI=100-100×luminescencesampie/luminescencecontroi. The half maximal inhibitory concentration (IC50) was determined by nonlinear curve fitting (four parameters, variable slope).

In experiment [3] the target is CDK2/Cyclin E1 (Homo sapiens (Human), UniProt P24941). Nature of the experiment: CDK2/Cyclin E1 Full length ADP-Glo Kinase Assay. Type of experiment: biochemical. Conditions: 20 uM ATP, read-out: CDK2/ CyclinE1 IC50. As for the experimental part:
CDK2/Cyclin E1 Full length ADP-Glo Kinase Assay
(§2) The purpose of CDK2/Cyclin E1 assay is to evaluate the inhibition (% inhibition and IC50 values) of small molecule inhibitors by using a Luminescent based ADP-Glo assay. CDK2/Cyclin E1 full length catalyzes the production of ADP from ATP. ADP-Glo assay monitors ADP producing biochemical reactions. ADP-Glo is performed in 2 steps upon completion of kinase reaction: a combined termination of kinase reaction and depletion of remaining ATP in the first step, and conversion of generated ADP to ATP and the newly produced ATP to light output using luciferase/luciferin reaction in the second step. The luminescent signal generated is proportional to the ADP concentration produced and is correlated with the kinase activity. CDK2/Cyclin E1 was purchased from Eurofins (Cat 14-475M). […] The assay was initiated with the addition of ATP-containing substrate solution, following a 30-minute pre-incubation of enzyme and inhibitor at room temperature in the reaction mixture. The reaction was stopped after 90 minutes at room temperature by the addition of 10 uL of ADP-GLO Reagent. After a 90 minute incubation, 20 uL of Kinase Detection Reagent was added. Samples were incubated for 40 minutes, after which plate well luminescence was measured on a Envision microplate reader. The IC50 determinations were made from a plot of the fractional velocity as a function of inhibitor concentration fit to the 4 parameters IC50 equation.
For orientation: ADP-Glo turns the ADP formed in a reaction into a luminescent signal.

Experiment [4] concerns MCF-7 cells. Nature of the experiment: Cell Growth Inhibition, MCF-7 (CellTiterGlo, 6 days). Type of experiment: cell-based. Conditions: Homo sapiens, MCF7, 144 h, MCF-7, 6-day treatment.
Description: as §1

Experiment [5] concerns the target CDK1/Cyclin B1 (Homo sapiens (Human), UniProt P06493). Nature of the experiment: CDK1/Cyclin B1 ADP-Glo Kinase Assay. Conditions: ADP-Glo, 80 uM ATP; read-out: CDK1 Cyclin B1 IC50. Type of experiment: biochemical. The protocol:
CDK1/Cyclin B1 ADP-Glo Kinase Assay
as §2, with “CDK1/Cyclin B1” for “CDK2/Cyclin E1”, “CDK1/Cyclin B1” for “CDK2/Cyclin E1 full length”, “Carna” for “Eurofins”, “04-102).” for “14-475M).”

Experiment [6] addresses CDK6/Cyclin D3 (Homo sapiens (Human), UniProt Q00534). Put plainly: CDK6/Cyclin D3 ADP-Glo Kinase Assay. Conditions: 100 uM ATP, read-out: CDK6/ CyclinD3 IC50. It is filed as biochemical. As for the experimental part: CDK6/Cyclin D3 ADP-Glo Kinase Assay
The purpose of the CDK6/Cyclin D3 assay is to evaluate the inhibition (% inhibition and IC50 values) in the presence of small molecule inhibitors by using a Luminescent based ADP-Glo assay. CDK6/Cyclin D3 catalyzes the production of ADP from ATP. ADP-Glo assay monitors ADP producing biochemical reactions. ADP-Glo is performed in 2 steps upon completion of kinase reaction: a combined termination of kinase reaction and depletion of remaining ATP in the first step, and conversion of generated ADP to […] and the newly produced ATP to light output using luciferase/luciferin reaction in the second step. The luminescent signal generated is proportional to the ADP concentration produced and is correlated with the kinase activity CDK6/Cyclin D3 was purchased from Carna. […] The assay was initiated with the addition of ATP-containing substrate solution, following a 30-minute pre-incubation of enzyme and inhibitor at room temperature in the reaction mixture. The reaction was stopped after 90 minutes at room temperature by the addition of 10 uL of ADP-GLO Reagent. After a 90-minute incubation, 20 uL of Kinase Detection Reagent was added. Samples were incubated for 40 minutes, after which plate well luminescence was measured on a Envision microplate reader. The IC50 determinations were made from a plot of the fractional velocity as a function of inhibitor concentration fit to the 4 parameters IC50 equation.

Sequence of CDK6/Cyclin D3 (Q00534 whole entry): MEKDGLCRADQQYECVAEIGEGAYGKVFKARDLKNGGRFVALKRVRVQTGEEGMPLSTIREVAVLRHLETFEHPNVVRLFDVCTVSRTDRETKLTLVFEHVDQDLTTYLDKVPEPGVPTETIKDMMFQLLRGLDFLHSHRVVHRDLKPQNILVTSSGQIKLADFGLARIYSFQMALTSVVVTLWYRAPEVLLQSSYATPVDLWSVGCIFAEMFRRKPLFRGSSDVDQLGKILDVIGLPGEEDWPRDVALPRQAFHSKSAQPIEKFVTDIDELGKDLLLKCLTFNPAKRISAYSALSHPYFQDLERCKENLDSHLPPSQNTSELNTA
Sequence of CDK6/Cyclin D3 (P30281 whole entry partner): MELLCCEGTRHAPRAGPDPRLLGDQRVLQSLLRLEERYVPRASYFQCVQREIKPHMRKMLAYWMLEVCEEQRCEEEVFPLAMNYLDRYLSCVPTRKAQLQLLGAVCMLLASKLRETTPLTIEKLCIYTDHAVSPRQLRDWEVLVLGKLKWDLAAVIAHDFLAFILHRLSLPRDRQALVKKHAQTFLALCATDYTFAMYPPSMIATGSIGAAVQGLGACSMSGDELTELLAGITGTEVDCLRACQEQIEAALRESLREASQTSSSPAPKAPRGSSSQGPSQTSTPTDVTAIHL
Sequence of CDK4/Cyclin D1 (P11802 whole entry): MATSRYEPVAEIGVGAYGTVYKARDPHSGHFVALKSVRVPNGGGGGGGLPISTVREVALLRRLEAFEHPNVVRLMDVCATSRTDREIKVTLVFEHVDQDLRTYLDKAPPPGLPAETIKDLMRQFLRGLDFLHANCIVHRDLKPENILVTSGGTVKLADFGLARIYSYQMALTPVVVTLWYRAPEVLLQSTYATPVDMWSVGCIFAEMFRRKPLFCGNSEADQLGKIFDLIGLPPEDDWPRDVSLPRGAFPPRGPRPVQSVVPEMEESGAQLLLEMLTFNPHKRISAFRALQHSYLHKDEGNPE
Sequence of CDK4/Cyclin D1 (P24385 whole entry partner): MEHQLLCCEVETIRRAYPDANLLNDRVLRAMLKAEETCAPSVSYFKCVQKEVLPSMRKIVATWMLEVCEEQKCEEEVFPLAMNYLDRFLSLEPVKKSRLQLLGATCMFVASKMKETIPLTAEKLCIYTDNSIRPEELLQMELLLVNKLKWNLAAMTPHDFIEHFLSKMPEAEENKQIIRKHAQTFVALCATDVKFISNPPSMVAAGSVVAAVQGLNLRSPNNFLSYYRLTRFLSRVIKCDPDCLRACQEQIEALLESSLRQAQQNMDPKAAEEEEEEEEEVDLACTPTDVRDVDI
Sequence of CDK1/Cyclin B1 (P06493 whole entry): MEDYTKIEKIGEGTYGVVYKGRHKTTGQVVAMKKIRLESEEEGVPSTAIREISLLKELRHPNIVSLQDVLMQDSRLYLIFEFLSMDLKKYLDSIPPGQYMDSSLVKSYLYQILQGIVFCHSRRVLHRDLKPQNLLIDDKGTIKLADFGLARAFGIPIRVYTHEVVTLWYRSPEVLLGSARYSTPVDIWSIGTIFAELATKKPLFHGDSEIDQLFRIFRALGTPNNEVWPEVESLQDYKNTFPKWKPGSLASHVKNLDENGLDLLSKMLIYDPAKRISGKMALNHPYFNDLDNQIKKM
Sequence of CDK1/Cyclin B1 (P14635 whole entry partner): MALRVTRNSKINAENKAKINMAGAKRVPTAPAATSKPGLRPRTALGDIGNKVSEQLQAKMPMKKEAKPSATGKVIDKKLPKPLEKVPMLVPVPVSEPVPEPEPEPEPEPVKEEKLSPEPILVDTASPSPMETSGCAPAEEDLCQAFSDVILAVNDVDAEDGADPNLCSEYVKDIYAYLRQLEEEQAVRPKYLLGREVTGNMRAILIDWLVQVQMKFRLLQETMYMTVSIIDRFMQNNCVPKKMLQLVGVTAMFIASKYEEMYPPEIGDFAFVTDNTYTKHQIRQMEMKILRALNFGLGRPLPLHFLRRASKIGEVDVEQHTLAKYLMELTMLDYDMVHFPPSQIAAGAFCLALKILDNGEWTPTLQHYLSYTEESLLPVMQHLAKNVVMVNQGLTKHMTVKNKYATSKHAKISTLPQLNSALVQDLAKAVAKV

As to `Cc1cc2cnc(Nc3cnn(C4CN(CC#N)C4)c3)nc2c(N2CC3(CN(C)C3)C2)n1` [Compound 31, 2-(3-(4-((6-methyl-8-(6-methyl-2,6-diazaspiro[3.3]heptan-2-yl)pyrido[3,4-d]pyrimidin-2-yl)amino)-1H-pyrazol-1-yl)azetidin-1-yl)acetonitrile], the IC50 in experiment [1] was more than 2000 nM; in experiment [2] it was more than 2000 nM; in experiment [3], less than 200 nM; in experiment [4] it was more than 2000 nM; in experiment [5] it was more than 2000 nM; in experiment [6], more than 2000 nM.
Regarding `Cc1cc2cnc(NC3CCN(S(=O)(=O)c4cnn(C)c4)CC3)nc2c(N2CC3(CCNCC3(F)F)C2)n1` [Compound 87, 8-(5,5-difluoro-2,7-diazaspiro[3.5]nonan-2-yl)-6-methyl-N-(1-((1-methyl-1H-pyrazol-4-yl)sulfonyl)piperidin-4-yl)pyrido[3,4-d]pyrimidin-2-amine], the IC50 in experiment [1] was less than 200 nM; in experiment [2] it was 200 to 500 nM; in experiment [3], less than 200 nM; in experiment [4], 500 to 2000 nM; in experiment [5], less than 200 nM; in experiment [6], less than 200 nM.
`Cc1cc2cnc(Nc3ccc4c(c3)CN(C3CN(S(C)(=O)=O)C3)C4)nc2c(N2CC3(CN(C)C3)C2)n1` [Compound 29, 6-methyl-8-(6-methyl-2,6-diazaspiro[3.3]heptan-2-yl)-N-(2-(1-(methylsulfonyl)azetidin-3-yl)isoindolin-5-yl)pyrido[3,4-d]pyrimidin-2-amine]: the IC50 in experiment [1] was less than 200 nM; in experiment [2], more than 2000 nM; in experiment [3] it was 200 to 500 nM; in experiment [4], more than 2000 nM; in experiment [5], more than 2000 nM; in experiment [6], 500 to 2000 nM.
As for `Cc1cc2cnc(NC3CCN(S(=O)(=O)C4CC4)CC3)nc2c(N2CC(CS(C)(=O)=O)C2)n1` [Compound 74, N-(1-(cyclopropylsulfonyl)piperidin-4-yl)-6-methyl-8-(3-((methylsulfonyl)methyl)azetidin-1-yl)pyrido[3,4-d]pyrimidin-2-amine], the IC50 in experiment [1] is 200 to 500 nM; in experiment [2] it was more than 2000 nM; in experiment [3] it was less than 200 nM; in experiment [4], more than 2000 nM; in experiment [5], 500 to 2000 nM; in experiment [6], 200 to 500 nM.
`Cc1cc2cnc(Nc3ccc(N4CC5(CN(C)C5)C4)cc3)nc2c(N2CCC3(C2)CC3(F)F)n1` (stereo not drawn) [Compound 34, 8-(1,1-difluoro-5-azaspiro[2.4]heptan-5-yl)-6-methyl-N-(4-(6-methyl-2,6-diazaspiro[3.3]heptan-2-yl)phenyl)pyrido[3,4-d]pyrimidin-2-amine]: the IC50 in experiment [1] is less than 200 nM; in experiment [2] it was 500 to 2000 nM; in experiment [3], less than 200 nM; in experiment [4], 500 to 2000 nM; in experiment [5] it was 500 to 2000 nM; in experiment [6], less than 200 nM.
In the case of `Cc1cc2cnc(NC3CCN(S(=O)(=O)C4(C)CC4)CC3)nc2c(N2CCC3(CN(C)C3)C2)n1` [Compound 59, 6-methyl-8-(2-methyl-2,6-diazaspiro[3.4]octan-6-yl)-N-(1-((1-methylcyclopropyl)sulfonyl)piperidin-4-yl)pyrido[3,4-d]pyrimidin-2-amine], the IC50 in experiment [1] is less than 200 nM; in experiment [2] it was 500 to 2000 nM; in experiment [3] it was less than 200 nM; in experiment [4], 500 to 2000 nM; in experiment [5], 500 to 2000 nM; in experiment [6], less than 200 nM.
On to `Cc1cc2cnc(Nc3cc4c(cc3F)CN(S(C)(=O)=O)C4)nc2c(N2CC3(CNC3)C2)n1` [Compound 37, N-(6-fluoro-2-(methylsulfonyl)isoindolin-5-yl)-6-methyl-8-(2,6-diazaspiro[3.3]heptan-2-yl)pyrido[3,4-d]pyrimidin-2-amine], for which the IC50 is more than 2000 nM in experiment [1]; more than 2000 nM in experiment [2]; 200 to 500 nM in experiment [3]; more than 2000 nM in experiment [4]; more than 2000 nM in experiment [5]; more than 2000 nM in experiment [6].
As for `Cc1cc2cnc(NC3CCN(S(=O)(=O)C4CC4)CC3)nc2c(N2CC3(CCNC3)C2)n1` [Example 25, N-(1-(cyclopropylsulfonyl)piperidin-4-yl)-6-methyl-8-(2,6-diazaspiro[3.4]octan-2-yl)pyrido[3,4-d]pyrimidin-2-amine], the IC50 is less than 200 nM in experiment [1]; 200 to 500 nM in experiment [2]; less than 200 nM in experiment [3]; 200 to 500 nM in experiment [4]; 200 to 500 nM in experiment [5]; less than 200 nM in experiment [6].
For the molecule `Cc1cc2cnc(Nc3cnn(CC4(N(C)C)CC4)c3)nc2c(N2CCC(C#N)(C3CC3)C2)n1` (stereo not drawn) [Compound 38, 3-cyclopropyl-1-(2-((1-((1-(dimethylamino)cyclopropyl)methyl)-1H-pyrazol-4-yl)amino)-6-methylpyrido[3,4-d]pyrimidin-8-yl)pyrrolidine-3-carbonitrile], the IC50 in experiment [1] was 500 to 2000 nM; in experiment [2], 500 to 2000 nM; in experiment [3], less than 200 nM; in experiment [4] it was more than 2000 nM; in experiment [5], more than 2000 nM; in experiment [6], more than 2000 nM.
